Experimental data: patent US20240092784A1, “CONDENSED HETEROCYCLIC COMPOUND” (NISSAN CHEMICAL CORPORATION, priority 2020, published 2024)

molecular target: human SPR (Homo sapiens (Human), UniProt P35270); test: Evaluation Example 2: Measurement of human SPR inhibitory activity (seven concentrations, sepiapterin absorbance at 420 nm); assay type: biochemical; conditions: Evaluation Example 2, seven concentrations 0.14 nM to 100 nM, 240 minutes at room temperature, read-out: IC50
In short: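 His-tagged full-length human SPR (1-261) was expressed in E. coli and the tag removed. Enzyme at 150 ng/mL in 100 mM Tris-HCl pH 7.5/0.01% BSA was mixed with compound (0.14–100 nM, seven points), 120 μM sepiapterin and 160 μM NADPH, both as added-solution concentrations. After 240 min at room temperature, remaining sepiapterin was read at 420 nm to give percent inhibition.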

human SPR, sequence (P35270 whole entry): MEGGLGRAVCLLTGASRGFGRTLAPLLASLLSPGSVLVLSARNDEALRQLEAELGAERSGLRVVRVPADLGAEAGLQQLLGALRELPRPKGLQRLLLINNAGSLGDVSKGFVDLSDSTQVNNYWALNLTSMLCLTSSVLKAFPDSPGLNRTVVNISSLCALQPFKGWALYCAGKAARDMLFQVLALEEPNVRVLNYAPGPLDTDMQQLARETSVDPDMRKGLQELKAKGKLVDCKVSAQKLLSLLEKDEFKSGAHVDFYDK

Row | SMILES | IC50
1 | CC(C)(C)Cn1c(=O)c(C(=O)NC2CC2)c(O)n2nc(Nc3cc(C#N)ncn3)cc12 [Synthesis Example 329, 2-((6-Cyanopyrimidin-4-yl)amino)-N-cyclopropyl-7-hydroxy-4-neopentyl-5-oxo-4,5-dihydropyrazolo[1,5-a]pyrimidine-6-carboxamide] | 1.69 nM
2 | Cc1cncc(Nc2cc3n(CC(C)(C)C)c(=O)c(C(=O)NC4CC4)c(O)n3n2)n1 [Synthesis Example 330, N-Cyclopropyl-7-hydroxy-2-((6-methylpyrazin-2-yl)amino)-4-neopentyl-5-oxo-4,5-dihydropyrazolo[1,5-a]pyrimidine-6-carboxamide] | 1.83 nM
3 | CC(C)(C)Cn1c(=O)c(C(=O)NC2CC2)c(O)n2nc(Nc3cncc(C(F)(F)F)n3)cc12 [Synthesis Example 331, N-Cyclopropyl-7-hydroxy-4-neopentyl-5-oxo-2-((6-(trifluoromethyl)pyrazin-2-yl)amino)-4,5-dihydropyrazolo[1,5-a]pyrimidine-6-carboxamide] | 1.71 nM
4 | COc1nccc(Nc2cc3n(CC(C)(C)C)c(=O)c(C(=O)NC4CC4)c(O)n3n2)n1 [Synthesis Example 332, N-Cyclopropyl-7-hydroxy-2-((2-methoxypyrimidin-4-yl)amino)-4-neopentyl-5-oxo-4,5-dihydropyrazolo[1,5-a]pyrimidine-6-carboxamide] | 2.06 nM
5 | Cc1cnc(Nc2cc3n(CC(C)(C)C)c(=O)c(C(=O)NC4CC4)c(O)n3n2)cn1 [Synthesis Example 333, N-Cyclopropyl-7-hydroxy-2-((5-methylpyrazin-2-yl)amino)-4-neopentyl-5-oxo-4,5-dihydropyrazolo[1,5-a]pyrimidine-6-carboxamide] | 1.86 nM
6 | Cc1nccc(Nc2cc3n(CC(C)(C)C)c(=O)c(C(=O)NC4CC4)c(O)n3n2)n1 [Synthesis Example 334, N-Cyclopropyl-7-hydroxy-2-((2-methylpyrimidin-4-yl)amino)-4-neopentyl-5-oxo-4,5-dihydropyrazolo[1,5-a]pyrimidine-6-carboxamide] | 1 nM
7 | CC(C)(C)Cn1c(=O)c(C(=O)NC2CC2)c(O)n2nc(Nc3cnc(C(=O)N4CCOCC4)cn3)cc12 [Synthesis Example 335, N-Cyclopropyl-7-hydroxy-2-((5-(morpholine-4-carbonyl)pyrazin-2-yl)amino)-4-neopentyl-5-oxo-4,5-dihydropyrazolo[1,5-a]pyrimidine-6-carboxamide] | 0.73 nM
8 | CCCc1cnc(Nc2cc3n(CC(C)(C)C)c(=O)c(C(=O)NC4CC4)c(O)n3n2)cn1 [Synthesis Example 336, N-Cyclopropyl-7-hydroxy-4-neopentyl-5-oxo-2-((5-propylpyrazin-2-yl)amino)-4,5-dihydropyrazolo[1,5-a]pyrimidine-6-carboxamide] | 7.13 nM
9 | CC(C)(C)Cn1c(=O)c(C(=O)NC2CC2)c(O)n2nc(Nc3cnc(C(F)F)cn3)cc12 [Synthesis Example 337, N-Cyclopropyl-2-((5-(difluoromethyl)pyrazin-2-yl)amino)-7-hydroxy-4-neopentyl-5-oxo-4,5-dihydropyrazolo[1,5-a]pyrimidine-6-carboxamide] | 1.48 nM
10 | CCOc1cnc(Nc2cc3n(CC(C)(C)C)c(=O)c(C(=O)NC4CC4)c(O)n3n2)cn1 [Synthesis Example 338, N-Cyclopropyl-2-((5-ethoxypyrazin-2-yl)amino)-7-hydroxy-4-neopentyl-5-oxo-4,5-dihydropyrazolo[1,5-a]pyrimidine-6-carboxamide] | 2.73 nM
11 | Cc1cc(Nc2cc3n(CC(C)(C)C)c(=O)c(C(=O)NC4CC4)c(O)n3n2)ncn1 [Synthesis Example 339, N-Cyclopropyl-7-hydroxy-2-((6-methylpyrimidin-4-yl)amino)-4-neopentyl-5-oxo-4,5-dihydropyrazolo[1,5-a]pyrimidine-6-carboxamide] | 4.57 nM
12 | Cc1cncnc1Nc1cc2n(CC(C)(C)C)c(=O)c(C(=O)NC3CC3)c(O)n2n1 [Synthesis Example 340, N-Cyclopropyl-7-hydroxy-2-((5-methylpyrimidin-4-yl)amino)-4-neopentyl-5-oxo-4,5-dihydropyrazolo[1,5-a]pyrimidine-6-carboxamide] | 1.92 nM
13 | CC(C)(C)Cn1c(=O)c(C(=O)NC2CC2)c(O)n2nc(N3CC[C@@H](N)C3)cc12 [Synthesis Example 341, (R)-2-(3-Aminopyrrolidin-1-yl)-N-cyclopropyl-7-hydroxy-4-neopentyl-5-oxo-4,5-dihydropyrazolo[1,5-a]pyrimidine-6-carboxamide] | 2.6 nM
14 | CC(C)(C)Cn1c(=O)c(C(=O)NC2CC2)c(O)n2nc(N3CC[C@H](N)C3)cc12 [Synthesis Example 342, (S)-2-(3-Aminopyrrolidin-1-yl)-N-cyclopropyl-7-hydroxy-4-neopentyl-5-oxo-4,5-dihydropyrazolo[1,5-a]pyrimidine-6-carboxamide] | 2.31 nM
15 | CC(C)(C)Cn1c(=O)c(C(=O)NC2CC2)c(O)n2nc(NC3CCCCC3)cc12 [Synthesis Example 343, 2-(Cyclohexylamino)-N-cyclopropyl-7-hydroxy-4-neopentyl-5-oxo-4,5-dihydropyrazolo[1,5-a]pyrimidine-6-carboxamide] | 4.71 nM
16 | CC(C)(C)Cn1c(=O)c(C(=O)NC2CC2)c(O)n2nc(Nc3cnc(C(C)(F)F)cn3)cc12 [Synthesis Example 344, N-Cyclopropyl-2-((5-(1,1-difluoroethyl)pyrazin-2-yl)amino)-7-hydroxy-4-neopentyl-5-oxo-4,5-dihydropyrazolo[1,5-a]pyrimidine-6-carboxamide] | 1.69 nM
17 | CC(C)(C)Cn1c(=O)c(C(=O)NC2CC2)c(O)n2nc(Nc3cncc(C(N)=O)n3)cc12 [Synthesis Example 345, 2-((6-Carbamoylpyrazin-2-yl)amino)-N-cyclopropyl-7-hydroxy-4-neopentyl-5-oxo-4,5-dihydropyrazolo[1,5-a]pyrimidine-6-carboxamide] | 0.92 nM
18 | Cn1ccc(Nc2cc3n(CC(C)(C)C)c(=O)c(C(=O)NC4CC4)c(O)n3n2)n1 [Synthesis Example 346, N-Cyclopropyl-7-hydroxy-2-((1-methyl-1H-pyrazol-3-yl)amino)-4-neopentyl-5-oxo-4,5-dihydropyrazolo[1,5-a]pyrimidine-6-carboxamide] | 1.77 nM
19 | CC(C)(C)Cn1c(=O)c(C(=O)NCC(F)(F)F)c(O)n2nc(Nc3cnccn3)cc12 [Synthesis Example 347, 7-Hydroxy-4-neopentyl-5-oxo-2-(pyrazin-2-ylamino)-N-(2,2,2-trifluoroethyl)-4,5-dihydropyrazolo[1,5-a]pyrimidine-6-carboxamide] | 1.87 nM
20 | CC(C)Cn1c(=O)c(C(=O)NCC(F)(F)F)c(O)n2nc(Nc3cnccn3)cc12 [Synthesis Example 348, 7-Hydroxy-4-isobutyl-5-oxo-2-(pyrazin-2-ylamino)-N-(2,2,2-trifluoroethyl)-4,5-dihydropyrazolo[1,5-a]pyrimidine-6-carboxamide] | 2.84 nM
21 | CC(C)(C)Cn1c(=O)c(C(=O)NC2CC2)c(O)n2nc(Nc3cnc(C(C)(C)O)cn3)cc12 [Synthesis Example 349, N-Cyclopropyl-7-hydroxy-2-((5-(2-hydroxypropan-2-yl)pyrazin-2-yl)amino)-4-neopentyl-5-oxo-4,5-dihydropyrazolo[1,5-a]pyrimidine-6-carboxamide] | 1.36 nM
